# Data reported in patent EP4775580A1, “COMPOUND, PHARMACEUTICAL COMPOSITION COMPRISING SAME, AND USE THEREOF” (Euregen Biopharma Co., Ltd., priority 2023, dated 2025).
# Numbering of substitutions follows the chain as printed.
# Legend:
# Menin-G331R = target: T1, Menin-G331R (Homo sapiens, UniProt O00255, G326R); assay: Fluorescence polarization assay of Menin binding to MLL peptide, G331R mutant; conditions: FP, 8 nM Menin, 4 nM MLL peptide
# T1 sequence (O00255 1-615 isoform O00255-1 G331R): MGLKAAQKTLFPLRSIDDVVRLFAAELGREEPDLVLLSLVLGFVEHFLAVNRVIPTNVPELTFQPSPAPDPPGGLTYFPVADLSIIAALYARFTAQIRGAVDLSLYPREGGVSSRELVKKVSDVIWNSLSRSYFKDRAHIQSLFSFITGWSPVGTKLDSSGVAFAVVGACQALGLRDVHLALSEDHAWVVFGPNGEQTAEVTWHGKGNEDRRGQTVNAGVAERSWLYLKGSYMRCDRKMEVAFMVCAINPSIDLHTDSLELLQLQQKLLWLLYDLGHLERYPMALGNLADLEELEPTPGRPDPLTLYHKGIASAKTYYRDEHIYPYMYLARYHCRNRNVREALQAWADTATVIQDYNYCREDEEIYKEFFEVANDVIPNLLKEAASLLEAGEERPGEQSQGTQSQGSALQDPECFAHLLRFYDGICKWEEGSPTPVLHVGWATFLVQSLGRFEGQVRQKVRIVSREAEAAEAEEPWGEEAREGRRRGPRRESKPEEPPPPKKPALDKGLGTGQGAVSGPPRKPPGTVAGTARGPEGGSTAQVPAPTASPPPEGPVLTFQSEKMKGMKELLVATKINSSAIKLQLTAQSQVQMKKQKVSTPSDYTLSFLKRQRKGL
# Excerpt: (§1) • 1. Objective: To evaluate the inhibitory activity of compounds against wild-type Menin protein (Menin-WT) and its mutant variants (Menin-M327V, Menin-M327I, Menin-T349M, Menin-S160T, Menin-S160C, Menin-G331R, and Menin-G331D). • 2. Experimental Principle: The experiment employed fluorescence polarization (FP) to detect the binding of wild-type Menin protein and its mutant variants to MLL peptide. In the absence of inhibitors, binding of wild-type Menin protein and its mutant variants to MLL peptide generates a high FP signal; upon addition of inhibitors, the binding between Menin proteins and MLL peptide is disrupted, resulting in a low FP signal. • 3. Experimental Materials: Final concentration of wild-type Menin protein and its mutant variants: 8 nM; final concentration of MLL peptide: 4 nM. Assay buffer: 50 mM Tris-HCl (pH 8.0), 120 mM NaCl, 0.005% CA-630, 2 mM DTT. • 4. […] The plate was centrifuged at 1000 rpm for 60 seconds. Subsequently, 10 µL of MLL peptide was added to each assay well. The plate was centrifuged at 1000 rpm for 60 seconds and sealed with a sealing membrane. After incubation at 23°C for 60 minutes, the plate was read using a PerkinElmer Envision reader. Data Analysis: [formula]
# (§2) Curve fitting: XLFIT software was used for curve fitting, employing a four-parameter logistic model with percent inhibition versus log(compound concentration) as variables.
# MV-4-11 cells = assay: Antiproliferative activity, CellTiter-Glo, 7 days (Test Example 2), MV-4-11; type: cell-based; conditions: Homo sapiens, MV4-11, 168 h, 7 days incubation
# Excerpt: [0134] 1. Experimental Principle: MV-4-11, Molm-13, and OCI-AML-3 cells are human hematologic tumor cell lines harboring the Menin-MLL fusion. HL-60 is a wild-type human hematologic tumor cell line without Menin-MLL fusion. […] 2. Experimental Materials: MV-4-11, Molm-13, OCI-AML-3, and HL-60 cells were all purchased from Cobioer; CellTiter-Glo® was purchased from Promega (Cat. #G7571); RPMI-1640 was purchased from Viva Cell (Cat. #C3010-0500); IMDM was purchased from Viva Cell (Cat. #C3040-0500); fetal bovine serum (FBS) was purchased from Biosera (Cat. #FB-1058/500); penicillin-streptomycin was purchased from BasalMedia (Cat. #S110JV); 0.25% Trypsin-EDTA was purchased from BasalMedia (Cat. #S310KJ); dimethyl sulfoxide (DMSO) was purchased from Sinopharm (Cat. #30072418); 96-well plates were purchased from Corning (Cat. #3610); incubator was obtained from PHCbi (Model: MCO-18AC); inverted microscope was obtained from Mingmei (Cat. #MI52-0); automated cell counter was obtained from BodBoge (Model: JSY-SC-031N); microplate reader was obtained from PerkinElmer (Model: Envision); data processing software: GraphPad Prism 8.0. 3. Experimental Methods: Four cell lines in logarithmic growth phase were resuspended in their respective growth media (MV-4-11: IMDM + 20% FBS; Molm-13: RPMI-1640 + 20% FBS; OCI-AML-3: RPMI-1640 + 20% FBS; HL-60: RPMI-1640 + 10% FBS) and diluted to target densities (12,500, 6,250, 12,500, and 12,500/mL, respectively). The cell suspensions were seeded into 96-well plates at 80 µL per well and incubated overnight at 37°C in a 5% CO2 incubator. Culture medium served as the background control. Test compounds were dissolved in DMSO to prepare 10 mmol/L stock solutions. The stock solutions were first diluted to 2 mmol/L with DMSO, followed by 4-fold serial dilutions to generate 10 concentrations. From each concentration, 2 µL was diluted with 78 µL growth medium. […] After incubation at room temperature for 10 minutes, luminescence values were read using the EnVision microplate reader, and IC50 values were calculated using GraphPad Prism 8.0 software. […]
# Menin-M327I = target: T2, Menin-M327I (Homo sapiens, UniProt O00255, M322I); assay: Fluorescence polarization assay of Menin binding to MLL peptide, M327I mutant; conditions: FP, 8 nM Menin, 4 nM MLL peptide
# T2 sequence (O00255 1-615 isoform O00255-1 M327I): T1 sequence (O00255 1-615 isoform O00255-1 G331R) with M327I, R331G
# Excerpt: as §1, §2
SMILES,IC50 (Menin-G331R) [nM],IC50 (MV-4-11 cells) [nM],IC50 (Menin-M327I) [nM]
"CCN(C(=O)c1cc(F)ccc1Oc1cncnc1N1CC2(CCN(C[C@H]3CC[C@H](NS(=O)(=O)CC)CC3)CC2)C1)C(C)C [SNDX-5613, revumenib]",101,14.4,928
CCN(C(=O)c1cc(F)ccc1N1CCN([C@@H]2CCN([C@H](CCCN(C)CCOC)C(C)C)C2)c2ncncc21)C(C)C [Example 3],36.7,10.1,40.7
